According to publication PMC6792352, “Limited Chemical Structural Diversity Found to Modulate Thyroid Hormone Receptor in the Tox21 Chemical Library” (Environmental Health Perspectives, 2019):
Counter-ions that a name gives are not always drawn. Non-standard residues stand in square brackets, D forms with d. Residues, ends and D or L forms follow the SMILES beside them. *: point of attachment. Sta = CC(C)C[C@H](N)[C@@H](O)CC(=O)O; Isovaleryl = CC(C)CC(=O)*

Experiment: in vitro
Conditions: rat, gh3-tre-luc cells

Structure (SMILES)	CC50 at 24 h (AC50 (uM) modified / 1000) [µM]	other results
[Cl][Cd][Cl] [Cadmium chloride]		CC50 at 24 h (AC50 (uM) modified / 1000, Tox21_110001=Tox21_202229, viability, 1 nM T3 present, 24 h): 26.6 µM; CC50 at 24 h (AC50 (uM) modified / 1000, Tox21_110001=Tox21_303000, viability, 1 nM T3 present, 24 h): 32.6 µM
Nc1cc(Cl)cc(S(=O)(=O)O)c1O [6-Amino-4-chloro-1-phenol-2-sulfonic acid]	> 90	
CCN(CC)CCNC(C(=O)OCCC(C)C)c1ccccc1 (centres unmarked) [Camylofin]	> 50	
CC[C@H]1C[C@@H]2C[C@H]3c4[nH]c5ccc(OC)cc5c4CCN(C2)[C@@H]13 [Ibogaine hydrochloride]	62.4	
CC1(C)[C@H]2CC[C@]1(C)[C@H](O)C2 [[(1S)-endo]-(-)-Borneol]	> 90	
CCOC(=O)/C=C\C(=O)OCC [Diethyl maleate]	> 90	
Cc1cc(-c2ccccc2)nnc1NCCN1CCOCC1 [Minaprine dihydrochloride]	> 50	
C=COC(=O)C(C)(C)CCCCCC [Vinyl neodecanoate]	> 90	
CC(=O)CC(=O)Nc1ccc(S(=O)(=O)O)cc1 [Potassium 4-[(3-oxobutanoyl)amino]benzenesulfonate]	> 90	
COC(=O)NCCC[Si](OC)(OC)OC [Methyl [3-(trimethoxysilyl)propyl]carbamate]	> 90	
CCCCN1CCCC[C@H]1C(=O)Nc1c(C)cccc1C [Levobupivacaine hydrochloride]	> 50	
O=C1CCc2cc(OCCCCc3nnnn3C3CCCCC3)ccc2N1 [Cilostazol]	> 50	
CCCC[N+](=O)[O-] [1-Nitrobutane]	> 90	
CC(Cc1ccccc1)NCCn1cnc2c1c(=O)n(C)c(=O)n2C (centres unmarked) [Fenethylline hydrochloride]		CC50 at 24 h (AC50 (uM) modified / 1000, Tox21_110001=Tox21_112896, viability, 1 nM T3 present, 24 h): > 90 µM
CCCCC(C#N)(Cn1cncn1)c1ccc(Cl)cc1 (centres unmarked) [Myclobutanil]	> 90	
C[C@H]1[C@@H](c2ccccc2)NC(=O)N1C [(4R,5S)-(-)-1,5-Dimethyl-4-phenyl-2-imidazolidinone]	> 90	
O=[N+]([O-])c1ccc(CCl)cc1 [4-Nitrobenzyl chloride]		CC50 at 24 h (AC50 (uM) modified / 1000, Tox21_110001=Tox21_200572, viability, 1 nM T3 present, 24 h): > 90 µM
CN[C@H](CC(C)C)C(=O)N[C@H]1C(=O)N[C@@H](CC(N)=O)C(=O)N[C@H]2C(=O)N[C@H]3C(=O)N[C@H](C(=O)N[C@H](C(=O)O)c4cc(O)cc(O)c4-c4cc3ccc4O)[C@H](O)c3ccc(c(Cl)c3)Oc3cc2cc(c3O[C@@H]2O[C@H](CO)[C@@H](O)[C@H](O)[C@H]2O[C@H]2C[C@](C)(N)[C@H](O)[C@H](C)O2)Oc2ccc(cc2Cl)[C@H]1O [Vancomycin hydrochloride]	> 50	
CC1=CC=C(C(C)C)CC1 [alpha-Terpinene]	> 90	
N#Cc1cc2ccccc2c2ccccc12 [9-Cyanophenanthrene]	> 90	
COC1=C(OC)C(=O)C(C/C=C(\C)CC/C=C(\C)CC/C=C(\C)CC/C=C(\C)CC/C=C(\C)CC/C=C(\C)CC/C=C(\C)CC/C=C(\C)CC/C=C(\C)CCC=C(C)C)=C(C)C1=O [Ubidecarenone]	> 50	
O=c1[nH]c(=O)n([C@H]2C[C@H](O)[C@@H](CO)O2)cc1C(F)(F)F [Trifluridine]	> 50	
OCCNCc1ccccc1 [N-Benzylethanolamine]	> 90	

Structure (SMILES)	CC50 at 24 h (AC50 (uM) modified / 1000) [µM]	other results
S=C(NC1CCCCC1)NC1CCCCC1 [N,N'-Dicyclohexylthiourea]	> 90	
O=[N+]([O-])c1ccc(/C=C/c2ccc([N+](=O)[O-])cc2S(=O)(=O)O)c(S(=O)(=O)O)c1 [Disodium 4,4'-dinitro-2,2'-stilbenedisulfonate]	> 90	
CCCc1ncc(C[n+]2ccccc2C)c(N)n1 [Amprolium hydrochloride]	> 20	
CC(C)CC(=O)OCc1ccccc1 [Benzyl 3-methylbutanoate]	> 90	
COc1ccc(N)cc1N [2,4-Diaminoanisole sulfate]	24.6	
NC(=O)C(c1ccccc1)(c1ccccc1)[C@@H]1CCN(CCc2ccc3c(c2)CCO3)C1 [Darifenacin hydrobromide]	14.7	
CCc1cccc(C)c1N [2-Ethyl-6-methylaniline]	> 90	
O=C(O)Cc1nn(Cc2ccc(Br)cc2F)c(=O)c2ccccc12 [Ponalrestat]	> 50	
O=C1c2ccccc2C(=O)c2c(O)ccc(O)c21 [1,4-Dihydroxyanthracene-9,10-dione]	> 90	
CC(C)CC(=O)N[C@H](C(=O)N[C@H](C(=O)N[C@@H](CC(C)C)[C@@H](O)CC(=O)N[C@@H](C)C(=O)N[C@@H](CC(C)C)[C@@H](O)CC(=O)O)C(C)C)C(C)C [Pepstatin] (Isovaleryl-VV[Sta]A[Sta]-OH)	> 50	
c1ccc(C(O[C@@H]2CCCN(CCc3ccc4c(c3)OCO4)C2)c2ccccc2)cc1 [Zamifenacin fumarate]	26.4	
CC1(C)CCC(C)(C)c2cc(NC(=O)c3ccc(C(=O)O)cc3)ccc21 [Tamibarotene]	15.4	
[O-][n+]1cccc(CO)c1 [Mepiroxol]	> 50	
Cc1ccc(C(=O)Nc2ccc(S(=O)(=O)O)c3cc(S(=O)(=O)O)cc(S(=O)(=O)O)c23)cc1NC(=O)c1cccc(NC(=O)Nc2cccc(C(=O)Nc3cc(C(=O)Nc4ccc(S(=O)(=O)O)c5cc(S(=O)(=O)O)cc(S(=O)(=O)O)c45)ccc3C)c2)c1 [Suramin]	> 50	
CC(C)(C)NCC(O)c1cc(Cl)c(N)c(C(F)(F)F)c1 (centres unmarked) [Mabuterol hydrochloride]	22.3	
O=C(O)CO [Glycolic acid]	> 90	
CNNCc1ccc(C(=O)NC(C)C)cc1 [Procarbazine hydrochloride]	> 50	
Oc1ccc(CCNCCCCCCNCCc2ccccc2)cc1O [Dopexamine]	37.1	
CCCCCCCCCCCCCCCO [1-Pentadecanol]	> 90	
CCCCCCCC[P+](CCCCCCCC)(CCCCCCCC)CCCCCCCC [Tetraoctylphosphonium bromide]	4.22	
CC1=C(/C=C/C(C)=C/C=C/C(C)=C\C=O)C(C)(C)CCC1 [13-cis-Retinal]	45.2	
CO[C@H]1C[C@H](O[C@H]2[C@H](C)[C@@H](O[C@@H]3O[C@H](C)C[C@H](N(C)C)[C@H]3O)[C@@H](C)C[C@@]3(CO3)C(=O)[C@H](C)[C@@H](O)[C@@H](C)[C@@H](C)OC(=O)[C@@H]2C)O[C@@H](C)[C@@H]1O [Oleandomycin phosphate]	> 20	
CCOC(C)(C)C [Ethyl T-butyl ether]	> 90	

Structure (SMILES)	CC50 at 24 h (AC50 (uM) modified / 1000) [µM]	other results
CN1CCC(Nc2ncc3ncnc(Nc4ccc(F)c(Cl)c4)c3n2)CC1 [Falnidamol dihydrochloride]	11.7	
CCCCS(=O)(=O)Cl [Butane-1-sulfonyl chloride]	> 90	
CCCCNC(C)(C)[PH](=O)O [Butafosfan]	> 50	
CC(=O)N(CC(O)CN(C(C)=O)c1c(I)c(C(=O)NC[C@@H](O)CO)c(I)c(C(=O)NC[C@@H](O)CO)c1I)c1c(I)c(C(=O)NC[C@@H](O)CO)c(I)c(C(=O)NC[C@@H](O)CO)c1I [Iodixanol]	> 20	
Clc1ccccc1-c1nc(-c2ccncc2)no1 [Pifexole]	> 50	
Cc1c(O)cccc1O [2-Methyl-1,3-benzenediol]	> 90	
O=C(C1CCCCC1)N1CC(=O)N2CCc3ccccc3C2C1 (centres unmarked) [Praziquantel]	> 90	
CC1(C)O[C@@H]2C[C@H]3[C@@H]4CCC5=CC(=O)CC[C@]5(C)[C@@]4(F)[C@@H](O)C[C@]3(C)[C@]2(C(=O)CCl)O1 [Halcinonide]	> 20	
CCC(C)N (centres unmarked) [2-Butanamine]	> 90	
CCN(Cc1c(F)cccc1Cl)c1c([N+](=O)[O-])cc(C(F)(F)F)cc1[N+](=O)[O-] [Flumetralin]	> 90	
CCC1(c2ccccc2)C(=O)NCNC1=O [Primidone]	> 90	
COC(=O)c1ccccc1C(=O)O [Monomethyl phthalate]	> 90	
CCOc1cccc(C2(N3CCN(c4ccccc4)CC3)CCC(C)CC2)c1 (centres unmarked) [CP-422935]	> 90	
COC(=O)c1cncn1C(C)c1ccccc1 (centres unmarked) [Metomidate hydrochloride]		CC50 at 24 h (AC50 (uM) modified / 1000, Tox21_110001=Tox21_110988, viability, 1 nM T3 present, 24 h): > 50 µM
Nc1ccc2ccccc2c1S(=O)(=O)O [2-Amino-1-naphthalenesulfonic acid]	> 90	
CNC(=O)CSP(=O)(OC)OC [Omethoate]		CC50 at 24 h (AC50 (uM) modified / 1000, Tox21_110001=Tox21_300968, viability, 1 nM T3 present, 24 h): > 90 µM
COC(=O)c1ccccc1S(=O)(=O)NC(=O)Nc1nc(C)cc(C)n1 [Sulfometuron-methyl]		CC50 at 24 h (AC50 (uM) modified / 1000, Tox21_110001=Tox21_301843, viability, 1 nM T3 present, 24 h): > 90 µM
C=C(C)CC(C)(C)C [2,4,4-Trimethyl-1-pentene]	> 90	
OCCCCCO [1,5-Pentanediol]	> 100	
CCC1Nc2cc(Cl)c(S(N)(=O)=O)cc2S(=O)(=O)N1 (centres unmarked) [Ethiazide]	> 50	
Nc1nc(N)nc(-c2cc(Cl)ccc2Cl)n1 [Irsogladine maleate]	> 50	
